Laboratory results published in publication PMC3767473 (Angewandte Chemie (International ed. in English), 2013).
Numbered stars: 1 amine (or outer) side, 2 acyl side, 3 side chain; on linkers, the order of the positions; unused ones are H or OH. Bridge positions count the residues as written; N and C are the ends. Square brackets hold non-standard residues; d marks the D form. Side chains are listed from the residue outwards. Peptide text beside a SMILES is read from it. * marks the point of attachment. X1 = O=C([C@H](Cc1ccc(-n2nnc3c2-c2ccccc2CN([*:3])c2ccccc2-3)cc1)N[*:1])[*:2]; X2 = Cc1c(CC(=O)*)c(=O)oc2cc(N)ccc12; βAla = NCCC(=O)O

Tests used:
[1] = cited from earlier work
[2] = test system: porcine pancreatic trypsin; test: Binding to commercial porcine pancreatic trypsin; details: Fig. S8

Compound: kalata B1: the first cyclotide to be discovered (GLPVCGETCVGGTCNTPGCTCSWPVCTRN; Kalata-B1; UniProt P56254 89-117, looked up)
- oral uterotonic activity [1]: orally effective uterotonic

Compound: CC[C@H](C)[C@@H]1NC(=O)[C@@H]2CSSC[C@@H]3NC(=O)[C@H](C(C)C)NC(=O)CNC(=O)CNC(=O)[C@H](CC(=O)O)NC(=O)[C@H](CO)NC(=O)CNC(=O)[C@H](CO)NC(=O)CNC(=O)[C@@H]4CSSC[C@H](NC(=O)[C@H](CC(=O)O)NC(=O)[C@H](CO)NC(=O)[C@H](Cc5ccc(-n6nnc7c6-c6ccccc6CN(C(=O)CCNC(=O)Cc6c(C)c8ccc(N)cc8oc6=O)c6ccccc6-7)cc5)NC(=O)[C@H](CCCNC(=N)N)NC(=O)[C@H](CCCNC(=N)N)NC(=O)[C@H](CSSC[C@H](NC1=O)C(=O)N[C@@H](CCCNC(=N)N)C(=O)NCC(=O)N[C@@H](CC(N)=O)C(=O)NCC(=O)N[C@@H](Cc1ccc(O)cc1)C(=O)N4)NC(=O)[C@H](CCCNC(=N)N)NC(=O)[C@H](CCC(N)=O)NC(=O)[C@H](CC(C)C)NC(=O)[C@H]([C@@H](C)CC)NC(=O)[C@H](CCCCN)NC(=O)[C@@H]1CCCN1C3=O)C(=O)N1CCC[C@H]1C(=O)NCC(=O)N[C@@H](C)C(=O)N2 [AMCA-labeled MCoTI-AziF] (cyclo(ACICRGNGYCGSGSDGGVCPKILQRCRR[X1]([βAla-X2])SDCPG); disulfide 2-19, 4-26, 10-32)
- binding to porcine pancreatic trypsin ([2]; commercial trypsin): able to bind commercial porcine pancreatic trypsin efficiently
- effect of the fluorophore in loop 2 on biological activity ([2]; trypsin binding): did not have a detrimental effect on its biological activity
